Where “and” joins values, the source holds several entries; their conditions need not be identical. Identical values can stand only once.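 Grown in 96-well plates, cells were treated for 48 hours with each compound at five concentrations. Insufficient inhibition: endpoint recorded as highest concentration tested. GI50 = concentration required for 50% inhibition of growth. TGI denotes the concentration required for complete inhibition of growth.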
Tests used:
Assay in all cases: inhibition of tumour cell growth, NCI panel, 48 h
HOP-92 NSCLC = test system: HOP-92 NSCLC
CAKI-1 renal = test system: CAKI-1 renal
NCI-H522 lung = test system: NCI-H522 lung
CCRF-CEM leukemia = test system: CCRF-CEM leukemia
HCC-2998 colon = test system: HCC-2998 colon
HT29 colon = test system: HT29 colon
SF-268 CNS = test system: SF-268 CNS
HOP-62 NSCLC = test system: HOP-62 NSCLC
BT-549 breast = test system: BT-549 breast
T-47D breast = test system: T-47D breast

| SMILES | TGI (HOP-92 NSCLC) | GI50 (CAKI-1 renal) | TGI (CAKI-1 renal) | TGI (NCI-H522 lung) | GI50 (CCRF-CEM leukemia) | TGI (CCRF-CEM leukemia) | GI50 (HCC-2998 colon) | TGI (HCC-2998 colon) | GI50 (HT29 colon) [µM] | TGI (HT29 colon) [µM] | GI50 (SF-268 CNS) | TGI (SF-268 CNS) | GI50 (HOP-62 NSCLC) | TGI (HOP-62 NSCLC) | GI50 (HOP-92 NSCLC) [µM] | GI50 (BT-549 breast) [µM] | TGI (BT-549 breast) [µM] | GI50 (NCI-H522 lung) [µM] | GI50 (T-47D breast) [nM] | TGI (T-47D breast) [µM] |
| --- | --- | --- | --- | --- | --- | --- | --- | --- | --- | --- | --- | --- | --- | --- | --- | --- | --- | --- | --- | --- |
| COc1cc(C2c3cc4c(cc3[C@@H](NCCN(C)C)C3COC(=O)[C@H]23)OCO4)cc(OC)c1O (stereo partly drawn) | 0.0928 µM and 0.335 µM | 306 nM and 652 nM | 3.46 µM and 4.21 µM | 1.76 µM and 2.2 µM | 13.6 nM and 27.7 nM | 0.417 µM and 0.352 µM | 383 nM and 1210 nM | 1.69 µM and 2.64 µM | 1.36 | 5 | 0.137 µM and 0.316 µM | 1.49 µM and 4.29 µM | 19.1 nM and 49.1 nM | 0.191 µM and 0.372 µM |  |  |  |  |  |  |
| CCN(CC)c1ccc(/C=C/C(=O)c2ccc(Nc3nc(Nc4ccccc4)nc(Nc4ccccc4)n3)cc2)cc1 | 4.84 µM | 5170 nM | 38 µM | > 100 µM | 3150 nM | > 100 µM |  |  | 20.3 | > 100 | 8.51 µM | 47.2 µM | 2550 nM | 28.1 µM | 0.0316 | 3.98 | 28.1 | 5.94 | 2650 | 41 |
| CC(C)/C=C1\CCC(CN(C)C)C1=O (stereo not drawn) | 3.47 µM |  | 4.21 µM | 0.22 µM |  | 5.34 µM |  | 19.1 µM |  | 4.84 |  | 38.8 µM |  | 46.3 µM |  |  | 7.83 |  |  |  |
| CCOc1ccccc1N=Nc1ccc2oc(=O)c(C(C)=O)cc2c1 |  |  | > 100 µM | > 100 µM |  | > 100 µM |  | > 100 µM |  | > 100 |  | > 100 µM |  | > 100 µM |  |  |  |  |  |  |
| Cc1ccc(C(=O)CC2(O)C(=O)Nc3c(C)cc(Cl)cc32)cc1 (stereo not drawn) | > 100 µM |  | > 100 µM | > 100 µM |  | > 100 µM |  | > 100 µM |  | > 100 |  | > 100 µM |  | > 100 µM |  |  |  |  |  |  |
| O=[N+]([O-])c1ccc(C2=Nc3ccccc3S(=O)C(c3ccccc3)C2)cc1 (stereo not drawn) |  |  | 37.4 µM | 35.3 µM |  | 36.9 µM |  | 34.9 µM |  | 42 |  | > 100 µM |  | 84.7 µM |  |  |  |  |  |  |
| Nc1ccc2n[se]nc2c1 |  |  | > 100 µM |  |  | > 100 µM |  | > 100 µM |  | > 100 |  | > 100 µM |  | > 100 µM |  |  |  |  |  |  |
| CN(C)CCNC(=O)c1cccc2c1nc(-c1ccc(F)cc1)c1ccccc12 | 9.89 µM |  | 16.8 µM |  |  | 11.9 µM |  | 16.7 µM |  | 15.1 |  | 21.8 µM |  | 12.9 µM |  |  |  |  |  |  |
| O=C1c2ccccc2C(=O)c2cc3c(cc21)CS(=O)C3 | > 100 µM |  | > 100 µM | > 100 µM |  | > 100 µM |  | > 100 µM |  | > 100 |  | > 100 µM |  | > 100 µM |  |  |  |  |  |  |
| N#CCCn1[nH]c(=O)c(Cl)c(Cl)c1=O | 16.6 µM |  |  | 41.3 µM |  |  |  | 26 µM |  | 24.2 |  | 32 µM |  |  |  |  |  |  |  |  |
| CC(C)(C)c1cc(CCC(=O)Nc2ccc(Cl)cc2)[nH]c(=S)n1 |  |  | > 100 µM | > 100 µM |  | > 100 µM |  | > 100 µM |  | > 100 |  | > 100 µM |  | > 100 µM |  |  |  |  |  |  |
| O=S1(=O)N2CN3CN(C2)CN1C3 |  |  | 571 µM | 412 µM |  | > 31.6 µM and 110 µM |  | 571 µM |  | 90.6 | 31.8 µM | > 87.5 µM and 133 µM |  | 624 µM |  |  |  |  |  |  |
| COc1cc([N+](=O)[O-])c(OC)cc1-c1nc2sc(C)c(C)n2c1/C(N)=N/C(=N)N | > 100 µM | > 100000 nM | > 100 µM | > 100 µM | 6010 nM | > 100 µM | > 100000 nM | > 100 µM | > 100 | > 100 |  |  | > 100000 nM | > 100 µM | 51.6 | > 100 | > 100 | > 100 |  |  |
| CC(=O)C1CCN(c2ccccc2)C1 (stereo not drawn) | > 100 µM |  | > 100 µM | > 100 µM |  | > 100 µM |  |  |  | > 100 |  | > 100 µM |  | > 100 µM |  |  |  |  |  |  |
| CCOC(=O)C(C)(NC(=O)c1ccc(NCc2ccc3nc(NC(=O)c4ccccc4)nc(NC(=O)c4ccccc4)c3c2)cc1)C(=O)OCC | 18.9 µM |  | 21.9 µM | 32.1 µM |  |  |  | 69.7 µM |  | 39.1 |  | 28.7 µM |  | 31.2 µM |  |  |  |  |  |  |
| O=C1C(c2ccccc2)=C(c2ccccc2)C(c2ccc(Cc3ccc(C4=C(c5ccccc5)C(=O)C(c5ccccc5)=C4c4ccccc4)cc3)cc2)=C1c1ccccc1 | > 100 µM |  | > 100 µM | > 100 µM |  | > 100 µM |  |  |  | > 100 |  | > 100 µM |  | > 100 µM |  |  |  |  |  |  |
| COc1ccccc1NC(=O)C1=C(C)NC(C)=C(C(=O)Nc2ccccc2OC)C1c1ccccc1[N+](=O)[O-] | 59.5 µM |  |  | 26.8 µM |  | 48.9 µM |  | 33 µM |  | 37 |  | 50.7 µM |  | 88.2 µM |  |  |  |  |  |  |
